{
  "source": "patent US12653860B2",
  "about": "“Compositions and methods for editing beta-globin for treatment of hemaglobinopathies” (Vertex Pharmaceuticals Incorporated, priority 2019, dated 2026)",
  "key": {"[1]": {"system": "BFP gene encoded in the AAVS1 locus of HEK293 T cells", "assay": "BFP to GFP reporter assay of HDR repair (flow cytometry)", "type": "cell-based", "details": "for HDR efficiency (improvement): 1.25 μM SCR7 or 10 μM RS-1, any ssODN construct, relative to DMSO alone", "experimental": "An in vitro assay was conducted to determine the ability of various inhibitors and enhancers to improve the efficiency of HDR repair in HEK293 T cells. Specifically, a fluorescent reporter-based screening approach was developed to identify molecules that enhance gene-editing by HDR. A reporter system was generated in HEK293 T cells comprising a genomic AAVS1 locus that encoded either a blue fluorescent protein (BFP) or a green fluorescent protein (GFP) within the AAVS1 locus. A gene encoding BFP can be converted to a gene encoding GFP by substitution of cytosine at position 199 to uridine (e.g., a C to U transition at position 199). By introducing a DSB within the BFP gene using a CRISPR/Cas9 gene-editing system, a homology donor DNA encoding the nucleotide substitution can be used to edit the BFP gene to a GFP gene by HDR repair. Thus, a gene edit that induces a C to U transition at position 199 results in a change in cellular fluorescence. A change in the fluorescence of the cell measured by flow cytometry can be used to quantify efficiency of HDR repair. Additionally, the reverse gene edit can be performed for an AAVS1 locus encoding a GFP gene, wherein a GFP can be converted to BFP by substitution of uridine at position 199 to cytosine.\nTo create the reporter system, an AAV-based homology donor DNA encoding either BFP or GFP was created. The AAV-BFP or AAV-GFP donor was flanked by homology arms that were 1000 base pairs in length and expression of BFP or GFP was driven by the MND promoter (e.g., a synthetic promoter that contains the U3 region of a modified Moloney murine leukemia virus long term terminal repeat with myeloproliferative sarcoma virus enhancer and deleted negative control region, SEQ ID NO: 58). The viral DNA was packaged into capsids of adeno-associated virus serotype 6 (AAV6) vector. Either the BFP or GFP donor was introduced using the AAV6 vector into the AAVS1 locus in HEK293 T cells by homologous recombination using CRISPR-Cas9 as follows: purified Cas9 protein was complexed with two different single gRNAs (sgRNAs) targeting the AAVS1 locus at SEQ ID NO: 3 (spacer sequence identified by SEQ ID NO: 4; gRNA obtained from Maxcyte) or SEQ ID NO: 5 (spacer sequence identified by SEQ ID NO: 6; gRNA obtained from Thermo Fisher). Cas9 protein used in the Exemplary section provided herein refers to Cas9 polypeptide derived from S pyogenes (SpCas9), unless indicated otherwise.\nThe Cas9-sgRNA complex was electroporated into the HEK293 T cells using the Lonza Nucleofector program CM-130. Approximately, 2 hours after electroporation, the cells were infected with various viral doses of AAV6 encoding a BFP (SEQ ID NO: 44) or GFP homology donor (SEQ ID NO: 47). One week later, cells were analyzed by flow cytometry to verify integration and expression of BFP or GFP in the AAVS1 locus. HEK293 T cells expressing BFP or GFP were sorted into single cells in 96-well plates. After −2 weeks of growth, DNA extracted from individual cells was analyzed for precise integration of the respective BFP or GFP gene into the AAVS1 locus by long-range PCR. This PCR analysis allowed for determination of whether the BFP/GFP gene was integrated in one or both alleles of the AAVS1 locus.\nTo introduce a gene edit that converts BFP to GFP, cells were electroporated with ribonucleoprotein (RNP) comprised of Cas9 and sgRNA that targets the BFP gene encoded in the AAVS1 locus. The sgRNA targeted a sequence in the BFP gene identified by SEQ ID NO: 7 (sgRNA spacer sequence identified by SEQ ID NO: 8). The sgRNA were prepared using a standard sgRNA cassette specific to SpCas9, as indicated by SEQ ID NO: 2 (wherein a, c, g, u represent 2′ O-methyl phosphorothioate nucleotides; s represents phosphorothioate nucleotides; and A, C, G, U, N represent canonical RNA nucleotides). The gRNAs used in the Exemplary section provided herein were sgRNAs prepared with the SpCas9 sgRNA cassette unless indicated otherwise. […]"}, "[2]": {"system": "GSD1a locus in HEK293 T cells", "assay": "HDR editing of GSD1a locus with ssODN homology donors", "type": "cell-based", "details": "FIG. 3; for HDR efficiency: 1.25 μM SCR7 or 10 μM RS-1", "experimental": "2×10^5 cells were edited with 1 μM Cas9 and 1.5 μM gRNA. The cells were transfected with two different ssODNs homology donors: 93-50 (SEQ ID NO: 39) or 25-100 (SEQ ID NO: 40). These two ssODN donors contain homology arms spanning both sides of the double-stranded break induced by the Cas9-guide and facilitate correction of a point mutation in the G6PC gene sequence by HDR. Cells were edited with 100 μM ssODN. The cells were treated with 2.5 μM Nu7441, 1.25 μM SCR7, or 10 μM RS-1 and the effect on HDR efficiency was evaluated."}, "[3]": {"system": "HBB locus in CD34-expressing LT-HSPCs", "assay": "HDR incorporation of sickle (E7V) edit at HBB locus in vitro, NGS assay", "type": "cell-based, human", "details": "for incorporation of the E7V gene edit: 1 μg mRNA encoding i53", "excerpt": "The cells were electroporated with 1 g mRNA encoding i53."}},
  "data": [
    {"compound": "O=C(Nc1ccc(Br)cc1)c1ccc(Br)c(S(=O)(=O)NCc2ccccc2)c1", "note": "[RS-1]", "values": [
      {"measurement": "HDR efficiency (improvement)", "setting": "[1]; FIG. 1A", "value": "no improvement in HDR efficiency"},
      {"measurement": "HDR efficiency", "setting": "[2]", "value": "no effect"}
    ]},
    {"compound": "i53: polypeptide inhibitor of 53BP1 (SEQ ID NO: 70), delivered as mRNA (ORF SEQ ID NO: 69)", "values": [
      {"measurement": "HDR efficiency", "setting": "[1]; different doses of mRNA encoding i53, ssODNs Hn-91-61 and Ht-39-88, FIG. 1D", "value": "HDR efficiency increased"},
      {"measurement": "incorporation of the E7V gene edit", "setting": "[3]; pre-EP AAV.304, FIG. 22B", "value": 58, "unit": "%"},
      {"measurement": "incorporation of the E7V gene edit", "setting": "[3]; AAV.307 + Cas9/R02 RNP, FIG. 10", "value": 68, "unit": "%"},
      {"measurement": "cells incorporating the sickle cell gene-edit", "setting": "[3]; LT-HSPCs mobilized by Mozobil alone, i53, FIG. 12B", "value": "approximately 70%"},
      {"measurement": "HDR efficiency, fold increase over RNP+AAV alone", "setting": "[3]; LT-HSPCs mobilized by Mozobil+GCSF, FIG. 12A", "value": "approximately 1.5 fold"},
      {"measurement": "incorporation of the sickle cell gene-edit by HDR", "setting": "[3]; LT-HSPCs mobilized by Mozobil+GCSF, i53, FIG. 12A", "value": "approximately 60%"}
    ]},
    {"compound": "O=c1[nH]c(=S)[nH]c(N=Cc2ccccc2)c1N=Cc1ccccc1", "note": "[SCR7]", "values": [
      {"measurement": "HDR efficiency (improvement)", "setting": "[1]; FIG. 1A", "value": "no improvement in HDR efficiency"},
      {"measurement": "HDR efficiency", "setting": "[2]", "value": "no effect"}
    ]},
    {"compound": "O=c1cc(N2CCOCC2)oc2c(-c3cccc4c3sc3ccccc34)cccc12", "note": "[Nu7441]", "values": [
      {"measurement": "HDR efficiency, fold higher", "setting": "[1]; 2.5 μM Nu7441, each of four ssODN constructs, FIG. 1A", "value": "approximately 3 fold"},
      {"measurement": "HDR efficiency, high vs low concentration", "setting": "[1]; 2.5 μM vs 0.6 μM Nu7441, FIG. 1B, 1C", "value": "approximately 1.5 fold"},
      {"measurement": "HDR efficiency at higher concentrations", "setting": "[1]; concentrations of Nu7441 higher than 2.5 μM", "value": "no further improvement in HDR efficiency"},
      {"measurement": "HDR efficiency over RNP+AAV alone", "setting": "[3]; 5 μM Nu7441, pre-EP AAV.304, FIG. 22B", "value": "no improvement of HDR efficiency"},
      {"measurement": "HDR efficiency, fold increase over DMSO alone", "setting": "[2]; 2.5 μM Nu7441, ssODN 93-50 or 25-100", "value": "approximately 1.7 fold"}
    ]}
  ]
}
